In assay [1] the target is T1, DUBs and other proteins in HEK293 cells (Homo sapiens, UniProt Q96K76).
T1 sequence (Q96K76 1-1375): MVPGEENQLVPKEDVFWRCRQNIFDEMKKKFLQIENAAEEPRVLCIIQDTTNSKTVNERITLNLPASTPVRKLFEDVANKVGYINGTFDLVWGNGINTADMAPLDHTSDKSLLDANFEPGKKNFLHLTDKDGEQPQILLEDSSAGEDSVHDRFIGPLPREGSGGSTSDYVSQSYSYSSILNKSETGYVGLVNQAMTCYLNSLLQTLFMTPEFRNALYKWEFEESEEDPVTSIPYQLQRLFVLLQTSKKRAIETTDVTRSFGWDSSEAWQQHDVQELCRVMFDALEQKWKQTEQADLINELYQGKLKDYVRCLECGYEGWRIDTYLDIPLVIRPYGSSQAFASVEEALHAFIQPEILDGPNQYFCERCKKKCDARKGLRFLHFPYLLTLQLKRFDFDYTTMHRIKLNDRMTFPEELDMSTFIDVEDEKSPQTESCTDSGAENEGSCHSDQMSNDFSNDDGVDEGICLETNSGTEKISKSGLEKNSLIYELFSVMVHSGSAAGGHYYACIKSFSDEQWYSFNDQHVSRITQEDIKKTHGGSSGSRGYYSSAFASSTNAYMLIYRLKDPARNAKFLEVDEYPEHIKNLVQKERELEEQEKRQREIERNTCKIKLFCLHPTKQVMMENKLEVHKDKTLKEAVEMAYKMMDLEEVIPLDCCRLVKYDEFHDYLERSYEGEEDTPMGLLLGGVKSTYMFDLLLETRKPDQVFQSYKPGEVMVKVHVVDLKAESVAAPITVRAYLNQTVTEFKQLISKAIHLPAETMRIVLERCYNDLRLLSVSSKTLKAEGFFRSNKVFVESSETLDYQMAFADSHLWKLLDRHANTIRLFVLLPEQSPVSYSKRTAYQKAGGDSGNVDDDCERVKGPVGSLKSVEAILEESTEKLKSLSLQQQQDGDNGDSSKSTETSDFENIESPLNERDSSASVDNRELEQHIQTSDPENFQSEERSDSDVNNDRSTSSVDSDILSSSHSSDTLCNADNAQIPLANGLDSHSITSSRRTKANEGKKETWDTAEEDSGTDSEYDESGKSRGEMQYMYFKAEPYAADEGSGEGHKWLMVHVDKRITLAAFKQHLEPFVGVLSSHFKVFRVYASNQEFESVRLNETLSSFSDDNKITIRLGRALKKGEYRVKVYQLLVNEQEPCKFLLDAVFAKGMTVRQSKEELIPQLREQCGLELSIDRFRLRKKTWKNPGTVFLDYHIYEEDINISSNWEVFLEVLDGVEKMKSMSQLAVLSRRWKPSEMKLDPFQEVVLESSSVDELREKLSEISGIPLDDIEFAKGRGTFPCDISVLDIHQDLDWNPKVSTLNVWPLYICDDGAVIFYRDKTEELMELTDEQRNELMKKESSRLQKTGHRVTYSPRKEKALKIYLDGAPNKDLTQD
Description: In-cell proteome-wide competitive ABPP, HEK293: other DUBs and proteins. The following applies: replicates A-C; for Log2 reporter intensity values: USP47: DMSO substract (FC); for Log2 reporter intensity values: USP47, DMSO subtracted.

For assay [2], the target named is T2, DUBs and other proteins in HEK293 cells (Homo sapiens, UniProt Q9Y5K5).
T2 sequence (Q9Y5K5 1-329): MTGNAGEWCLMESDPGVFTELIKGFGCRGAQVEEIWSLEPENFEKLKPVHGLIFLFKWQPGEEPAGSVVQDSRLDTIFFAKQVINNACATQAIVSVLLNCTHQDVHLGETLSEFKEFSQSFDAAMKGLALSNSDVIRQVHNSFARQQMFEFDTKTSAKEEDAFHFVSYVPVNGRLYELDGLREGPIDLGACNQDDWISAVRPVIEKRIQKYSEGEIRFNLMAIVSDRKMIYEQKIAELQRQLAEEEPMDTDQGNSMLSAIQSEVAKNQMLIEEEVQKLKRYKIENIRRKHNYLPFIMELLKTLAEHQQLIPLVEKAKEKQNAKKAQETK
The assay is described as above. Particulars: replicates A-C; for Log2 reporter intensity values: UCHL5: competition with ABP 2, DMSO substract (FC); for Log2 reporter intensity values: UCHL5, DMSO subtracted.

Values joined by “and” are separate entries in the source; they are usually repeats but may differ in a detail not shown here. Identical values can stand only once.

Take `N#CN1CCC[C@H]1C(=O)N1CCc2c(-c3c[nH]c4ncccc34)cccc21` [Compound 1]: the “Log2 reporter intensity values: USP47” value in assay [1] (1 at 1 μM, competition with ABP 2) is 0.973 and 1.08 and 1.022; in assay [1] (1 at 4 μM, competition with ABP 2), 1.072 and 1.012 and 0.9583. For the same compound, the “Log2 reporter intensity values” in assay [1] (1_1 μM) is -0.02716 and 0.07955 and 0.02151; in assay [1] (1_4 μM), 0.07173 and 0.01208 and -0.04184; in assay [1] (1 at 1 μM) it was -0.03956 and 0.1106 and 0.03085; in assay [1] (1 at 4 μM) it was 0.1001 and 0.01747 and -0.0615; in assay [2] (1_1 μM), 0.1208 and 0.05828 and 0.08364; in assay [2] (1_4 μM) it was 0.06718 and 0.06755 and 0.06936. Besides, the “Log2 reporter intensity values” was 0.1653 and 0.08265 and 0.1168 in assay [2] (1 at 1 μM); 0.09472 and 0.09521 and 0.09766 in assay [2] (1 at 4 μM). Also, the “Log2 reporter intensity values: UCHL5” value in assay [2] (1 at 1 μM) is 1.121 and 1.059 and 1.084; in assay [2] (1 at 4 μM) it was 1.068 (2×) and 1.07.

For `C#Cc1cnc2[nH]cc(-c3cccc4c3CCN4C(=O)[C@@H]3CCCN3C#N)c2c1` [Compound 2], the “Log2 reporter intensity values: USP47” value in assay [1] (20 nM ABP 2 alone) was 0.9076 and 0.9784 and 0.8828. Further, the “Log2 reporter intensity values” in assay [1] (20 nM ABP 2) is -0.1398 and -0.03153 and -0.1799 and -0.09247 and -0.02173 and -0.1173.

For the compound `N#CN1CCC[C@@H]1C(=O)N1CCc2c(-c3c[nH]c4ncccc34)cccc21` [Compound 3], the “Log2 reporter intensity values: USP47” value in assay [1] (3 at 1 μM, competition with ABP 2) was 1.001 and 0.9758 and 1.097; in assay [1] (3 at 4 μM, competition with ABP 2), 0.9921 and 1.112 and 1.049. Also, the “Log2 reporter intensity values” in assay [1] (3_1 μM) was 0.0008917 and -0.02426 and 0.09736; in assay [1] (3_4 μM) it was -0.008057 and 0.1123 and 0.04861; in assay [1] (3 at 1 μM), 0.001442 and -0.03527 and 0.1342; in assay [1] (3 at 4 μM), -0.01151 and 0.1537 and 0.06863; in assay [2] (3_1 μM), 0.1503 and 0.124 and 0.1395; in assay [2] (3_4 μM) it was -0.1246 and -0.07482 and -0.05103. Also, the “Log2 reporter intensity values” is 0.2029 and 0.1696 and 0.1893 in assay [2] (3 at 1 μM); -0.1908 and -0.1111 and -0.07454 in assay [2] (3 at 4 μM). The “Log2 reporter intensity values: UCHL5” value in assay [2] (3 at 1 μM) is 1.151 and 1.125 and 1.14; in assay [2] (3 at 4 μM), 0.8761 and 0.9259 and 0.9496.

For `CC(=O)O/N=C1\C(=O)N(Cc2cc(Cl)ccc2Cl)c2ccc(Cl)cc21` [LDN], the “Log2 reporter intensity values: USP47” value in assay [1] (LDN at 5 μM, competition with ABP 2) was 0.9979 and 0.9926 and 1.029; in assay [1] (LDN at 25 μM, competition with ABP 2), 1.08 and 1.079 and 1.007. In addition, the “Log2 reporter intensity values” in assay [1] (LDN at 5 μM) is -0.003055 and -0.01068 and 0.04147; in assay [1] (LDN at 25 μM), 0.1109 and 0.1092 and 0.01034; in assay [1] (LDN_5 μM) it was -0.002223 and -0.007484 and 0.02905; in assay [1] (LDN_25 μM) it was 0.07978 and 0.07849 and 0.007088; in assay [2] (LDN at 5 μM), 0.134 and 0.09247 and 0.1227; in assay [2] (LDN at 25 μM), -0.08966 and -0.05875 and -0.1393. Moreover, the “Log2 reporter intensity values” in assay [2] (LDN_5 μM) is 0.09668 and 0.06552 and 0.08811; in assay [2] (LDN_25 μM) it was -0.06093 and -0.04058 and -0.09272. For the same compound, the “Log2 reporter intensity values: UCHL5” value in assay [2] (LDN at 5 μM) is 1.097 and 1.066 and 1.089; in assay [2] (LDN at 25 μM) it was 0.9397 and 0.9601 and 0.908.

The record behind these values is publication PMC7366380, “Discovery of a Potent and Selective Covalent Inhibitor and Activity-Based Probe for the Deubiquitylating Enzyme UCHL1, with Antifibrotic Activity” (Journal of the American Chemical Society, 2020).
